Data from article PMC8066339, “Optimization of 2-Acylaminocycloalkylthiophene Derivatives for Activity against Staphylococcus aureus RnpA” (Antibiotics, 2021).

Assay: MTT cytotoxicity testing
Settings: human, HEP G2 cells (human liver epithelial cells)
Protocol: For the scaffold to have translational significance, it must be non-toxic to human cells. Accordingly, an initial assessment of toxicity was performed using human liver epithelial (HEP G2) cells via a 3-(4,5-dimethylthiazol-2-yl)-2,5-diphenyltetrazolium bromide (MTT) assay in the presence of up to 400 µM of each analog. […] Viability of 70% was used as the cut-off criteria for toxicity (Figure 4, dashed line), according to ISO guidelines, as described in Materials and Methods.
Human liver epithelial cells (HEP G2) were cultured in Dulbecco’s Modified Eagle Medium (DMEM; Fisher Scientific, Hampton, NH) supplemented with 10% heat inactivated fetal bovine serum (FBS; Corning Life Sciences) and 1% penicillin/streptomycin (Thermofisher Scientific). Cells were incubated at 37 °C with 5% CO2 in Nunc (Roskilde, Denmark) tissue culture flasks. Cells were grown in monolayers until exceeding 70% confluency, removed with 0.25% trypsin (Fisher Scientific), resuspended in fresh medium, and used to seed approximately 2.5 × 10^5 cells/mL into each well of a 96 well tissue culture microplate (Nunc) containing 200 µL of fresh medium. Cytotoxicity testing was conducted according to the guidelines of the International Organization for Standardization (ISO) 10993-5:2009. After 24 h of incubation, the cell media was removed, and adherent cells were washed with 1× phosphate buffered saline (PBS). Cell media was supplemented with 5% per volume of compound at final concentrations from 12.5 µM to 400 µM and incubated 20–24 h at 37 °C with 5% CO2. After incubation, medium supplemented with compound was removed from the wells and replaced with 100 µL of fresh culture medium. Then, 10 µL of 12 mM (3-(4,5-dimethylthiazol-2-yl)-2,5-diphenyltetrazolium bromide (MTT) stock reagent (CyQUANT MTT cell proliferation kit; Thermofisher Scientific) was added to each well. After labeling the cells with the MTT reagent, all but 25 µL of medium was removed from the wells, and 50 µL of DMSO was added to each well and mixed thoroughly and cells were incubated at 37 °C with 5% CO2 for 10 min. After incubation, wells were mixed again and using a SPECTRAmax5 microplate reader, absorbance was read at 540 nm. Cells were treated with 125 µg/mL mitomycin C (Fisher Scientific) to serve as a positive control and 2% DMSO as a negative control. […] All compounds were tested in two independent experiments in triplicate and cell viability was expressed as a percent of the negative control.

SMILES: O=C(Nc1ccc(C(F)(F)F)cc1)c1c(NC(=O)C(F)(F)F)sc2c1CCCCC2 [RNP0012]
- viability at 50 µM: 68%
